Experimental data from US10294248B2, “Beta-lactamase inhibitors” (VenatoRx Pharmaceuticals, Inc., priority 2013, dated 2019).

Legend:
[1] = target: T1, SHV-5 β-lactamase (Class A ESBL) (Klebsiella pneumoniae, UniProt P0A3M1); test: β-Lactamase inhibition, SHV-5; format: biochemical
T1 construct: made in house; host or cells: E. coli BL21(DE3)
How it was run: (§1)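 IC50 is the inhibitor level cutting initial substrate hydrolysis rate by 50% relative to no-inhibitor controls, after 15 min enzyme–inhibitor preincubation at 37 °C. KPC-2 read with imipenem at 300 nm, SHV-5 with cefotaxime at 260 nm; enzymes were untagged, E. coli-expressed, chromatographically purified.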

[2] = system: S. aureus MSSA-7 producing penicillinase PC-1; test: Broth microdilution MIC, S. aureus MSSA-7 PC-1; format: cell-based; details: fixed 4 μg/mL piperacillin; CAMHB, 16-20 hours at 37° C.
How it was run: (§2)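 CAMHB, CLSI broth microdilution; strains pre-grown 3-5 h. Compound 32–0.25 μg/ml (2-fold series) + fixed β-lactam 4 μg/ml overlay. 37° C, 16-20 h; MIC scored by eye.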

[3] = target: T2, KPC-2 β-lactamase (Class A carbapenemase) (Klebsiella pneumoniae, UniProt Q9F663); test: β-Lactamase inhibition, KPC-2; format: biochemical; details: imipenem substrate, 300 nm; 15 min preincubation at 37° C., PBS pH 7.4
T2 construct: made in house; host or cells: E. coli BL21(DE3)
How it was run: as §1

[4] = target: T3, VIM-2 metallo-β-lactamase (Class B) (Pseudomonas aeruginosa, UniProt Q9K2N0); test: β-Lactamase inhibition, VIM-2; format: biochemical; details: nitrocefin 100 μM, 486 nm; 15 min preincubation at 37° C., PBS pH 7.4
T3 construct: made in house; host or cells: E. coli BL21(DE3)
How it was run: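 Enzyme + inhibitor, 37 °C, 15 min; nitrocefin 100 μM final; A486 read for 10 min. % inhibition vs no-inhibitor wells per concentration; IC50 = concentration halving initial hydrolysis rate.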

[5] = system: K. pneumoniae 156319 expressing KPC-3; test: Broth microdilution MIC, K. pneumoniae 156319 KPC-3; format: cell-based; details: fixed 4 μg/mL meropenem; CAMHB, 16-20 hours at 37° C.
How it was run: as §2

[6] = target: T4, p99 AmpC β-lactamase (Class C) (Enterobacter cloacae, UniProt P05364); test: β-Lactamase inhibition, p99 AmpC; format: biochemical
T4 construct: made in house; host or cells: E. coli BL21(DE3)

[7] = system: E. cloacae 144200 expressing Class C P99 AmpC; test: Broth microdilution MIC, E. cloacae 144200 p99 AmpC; format: cell-based; details: fixed 4 μg/mL ceftazidime; CAMHB, 16-20 hours at 37° C.
How it was run: as §2

[8] = target: T5, OXA-1 β-lactamase (Class D oxacillinase) (Escherichia coli, UniProt P13661); test: β-Lactamase inhibition, OXA-1; format: biochemical; details: nitrocefin 100 μM, 486 nm; 15 min preincubation at 37° C., PBS pH 7.4
T5 construct: made in house; host or cells: E. coli BL21(DE3)
How it was run: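 Compounds are mixed with purified, untagged recombinant β-lactamase and held 15 min at 37 °C. Substrate is then added: nitrocefin (100 μM final) for OXA-1, imipenem for KPC-2, cefotaxime for SHV-5. Absorbance is followed immediately, and percent inhibition per concentration gives the IC50.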

[9] = system: P. aeruginosa Ps296 expressing VIM-2; test: Broth microdilution MIC, P. aeruginosa Ps296 VIM-2; format: cell-based; details: fixed 4 μg/mL meropenem; CAMHB, 16-20 hours at 37° C.
How it was run: as §2

[10] = system: E. coli ESBL4 expressing CTX-M-15; test: Broth microdilution MIC, E. coli ESBL4 CTX-M-15; format: cell-based; details: fixed 4 μg/mL ceftazidime; CAMHB, 16-20 hours at 37° C.
How it was run: as §2

[11] = system: K. pneumoniae A-1797 expressing KPC-2 and VIM-4; test: Broth microdilution MIC, K. pneumoniae A-1797 KPC-2/VIM-4; format: cell-based; details: fixed 4 μg/mL meropenem; CAMHB, 16-20 hours at 37° C.
How it was run: as §2

T1 sequence (P0A3M1 22-286): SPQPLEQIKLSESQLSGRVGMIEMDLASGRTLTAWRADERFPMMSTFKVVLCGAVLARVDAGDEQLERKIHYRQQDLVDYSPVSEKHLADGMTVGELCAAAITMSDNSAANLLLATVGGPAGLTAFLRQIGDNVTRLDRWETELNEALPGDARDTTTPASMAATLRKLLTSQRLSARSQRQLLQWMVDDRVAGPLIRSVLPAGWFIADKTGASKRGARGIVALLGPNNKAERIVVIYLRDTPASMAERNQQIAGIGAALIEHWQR
T2 sequence (Q9F663 25-293, looked up): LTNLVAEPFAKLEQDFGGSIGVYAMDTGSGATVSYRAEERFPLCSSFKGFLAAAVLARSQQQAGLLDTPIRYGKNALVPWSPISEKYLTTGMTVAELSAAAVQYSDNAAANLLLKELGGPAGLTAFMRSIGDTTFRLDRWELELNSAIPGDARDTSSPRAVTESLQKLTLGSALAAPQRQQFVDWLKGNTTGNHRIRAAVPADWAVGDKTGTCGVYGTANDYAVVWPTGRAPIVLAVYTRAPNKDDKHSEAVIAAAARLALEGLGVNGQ
T5 sequence (P13661 26-276): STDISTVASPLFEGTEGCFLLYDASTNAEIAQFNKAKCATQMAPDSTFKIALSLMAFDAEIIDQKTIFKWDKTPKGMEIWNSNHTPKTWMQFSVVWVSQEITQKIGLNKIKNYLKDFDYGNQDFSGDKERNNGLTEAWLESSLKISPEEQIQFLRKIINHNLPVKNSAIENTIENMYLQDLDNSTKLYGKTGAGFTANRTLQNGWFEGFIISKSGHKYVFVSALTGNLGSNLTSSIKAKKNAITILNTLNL
T4 sequence (P05364 21-381): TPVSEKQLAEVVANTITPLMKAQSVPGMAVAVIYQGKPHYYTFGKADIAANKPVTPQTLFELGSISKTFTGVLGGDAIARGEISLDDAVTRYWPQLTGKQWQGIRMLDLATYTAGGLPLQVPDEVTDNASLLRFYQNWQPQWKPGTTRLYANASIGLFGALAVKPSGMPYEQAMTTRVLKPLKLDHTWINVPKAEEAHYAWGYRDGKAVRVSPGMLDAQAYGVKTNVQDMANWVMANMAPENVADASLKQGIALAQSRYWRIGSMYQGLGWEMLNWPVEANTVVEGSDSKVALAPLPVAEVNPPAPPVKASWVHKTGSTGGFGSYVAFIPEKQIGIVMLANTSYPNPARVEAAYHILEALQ

SMILES	IC50 [1] [nM]	MIC of example compound in presence of fixed β-lactam: Fixed Pip, S. aureus MSSA-7 PC-1 [2]	IC50 [3] [nM]	IC50 [4] [nM]	MIC of example compound in presence of fixed β-lactam: Fixed Mero, K. P. 156319 KPC-3 [5]	IC50 [6] [nM]	MIC of example compound in presence of fixed β-lactam: Fixed CAZ, E. cl. 144200 p99 AmpC [7]	IC50 [8] [nM]	MIC of example compound in presence of fixed β-lactam: Fixed Mero, P. aerug. Ps296 VIM-2 [9]	MIC of example compound in presence of fixed β-lactam: Fixed CAZ, E. coli ESBL4 CTX-M-15 [10]	MIC of example compound in presence of fixed β-lactam: Fixed Mero, K. P. A-1797 KPC-2 VIM-4 [11]
O=C(CN1CCCNCC1)N[C@H]1Cc2cccc(C(=O)O)c2OB1O [Example 13, 3-(2-[1,4]Diazepan-1-yl-acetylamino)-2-hydroxy-3,4-dihydro-2H-benzo[e][1,2]oxaborinine-8-carboxylic acid]	100 to 1000	C (the MIC in the presence of <4 μg/mL of a β-lactamase inhibitor)	1000 to 10000	10000 to 100000	C (the MIC in the presence of <4 μg/mL of a β-lactamase inhibitor)	< 100	C (the MIC in the presence of <4 μg/mL of a β-lactamase inhibitor)	100 to 1000	B (the MIC in the presence of between 8 and 32 μg/mL of a β-lactamase inhibitor)	C (the MIC in the presence of <4 μg/mL of a β-lactamase inhibitor)	B (the MIC in the presence of between 8 and 32 μg/mL of a β-lactamase inhibitor)
CNC1CCN(CC(=O)N[C@H]2Cc3cccc(C(=O)O)c3OB2O)CC1 [Example 14, 2-Hydroxy-3-[2-(4-methylamino-piperidin-1-yl)-acetylamino]-3,4-dihydro-2H-benzo[e][1,2]oxaborinine-8-carboxylic acid]	100 to 1000	C (the MIC in the presence of <4 μg/mL of a β-lactamase inhibitor)	100 to 1000	1000 to 10000	C (the MIC in the presence of <4 μg/mL of a β-lactamase inhibitor)	< 100	C (the MIC in the presence of <4 μg/mL of a β-lactamase inhibitor)	100 to 1000	B (the MIC in the presence of between 8 and 32 μg/mL of a β-lactamase inhibitor)	C (the MIC in the presence of <4 μg/mL of a β-lactamase inhibitor)	B (the MIC in the presence of between 8 and 32 μg/mL of a β-lactamase inhibitor)
O=C(CN1CCN(c2nccs2)CC1)N[C@H]1Cc2cccc(C(=O)O)c2OB1O [Example 15, 2-Hydroxy-3-[2-(4-thiazol-2-yl-piperazin-1-yl)-acetylamino]-3,4-dihydro-2H-benzo[e][1,2]oxaborinine-8-carboxylic acid]	100 to 1000	C (the MIC in the presence of <4 μg/mL of a β-lactamase inhibitor)	1000 to 10000	1000 to 10000	C (the MIC in the presence of <4 μg/mL of a β-lactamase inhibitor)	< 100	C (the MIC in the presence of <4 μg/mL of a β-lactamase inhibitor)	100 to 1000	C (the MIC in the presence of <4 μg/mL of a β-lactamase inhibitor)	C (the MIC in the presence of <4 μg/mL of a β-lactamase inhibitor)	B (the MIC in the presence of between 8 and 32 μg/mL of a β-lactamase inhibitor)
NCCN1CCN(CC(=O)N[C@H]2Cc3cccc(C(=O)O)c3OB2O)CC1 [Example 16, 3-{2-[4-(2-Amino-ethyl)-piperazin-1-yl]-acetylamino}-2-hydroxy-3,4-dihydro-2H-benzo[e][1,2]oxaborinine-8-carboxylic acid]	< 100	C (the MIC in the presence of <4 μg/mL of a β-lactamase inhibitor)	100 to 1000	1000 to 10000	C (the MIC in the presence of <4 μg/mL of a β-lactamase inhibitor)	< 100	C (the MIC in the presence of <4 μg/mL of a β-lactamase inhibitor)	< 100	C (the MIC in the presence of <4 μg/mL of a β-lactamase inhibitor)	C (the MIC in the presence of <4 μg/mL of a β-lactamase inhibitor)	B (the MIC in the presence of between 8 and 32 μg/mL of a β-lactamase inhibitor)
NCC(=O)N1CCN(CC(=O)N[C@H]2Cc3cccc(C(=O)O)c3OB2O)CC1 [Example 17, 3-{2-[4-(2-Amino-acetyl)-piperazin-1-yl]-acetylamino}-2-hydroxy-3,4-dihydro-2H-benzo[e][1,2]oxaborinine-8-carboxylic acid]	< 100	C (the MIC in the presence of <4 μg/mL of a β-lactamase inhibitor)	100 to 1000	1000 to 10000	B (the MIC in the presence of between 8 and 32 μg/mL of a β-lactamase inhibitor)	< 100	C (the MIC in the presence of <4 μg/mL of a β-lactamase inhibitor)	< 100	A (an MIC of the fixed β-lactam antibiotic in the presence of >32 μg/mL of a β-lactamase inhibitor)	B (the MIC in the presence of between 8 and 32 μg/mL of a β-lactamase inhibitor)	A (an MIC of the fixed β-lactam antibiotic in the presence of >32 μg/mL of a β-lactamase inhibitor)
O=C(CN1CCN(CCO)CC1)N[C@H]1Cc2cccc(C(=O)O)c2OB1O [Example 18, 2-Hydroxy-3-{2-[4-(2-hydroxy-ethyl)-piperazin-1-yl]-acetylamino}-3,4-dihydro-2H-benzo[e][1,2]oxaborinine-8-carboxylic acid]	100 to 1000	A (an MIC of the fixed β-lactam antibiotic in the presence of >32 μg/mL of a β-lactamase inhibitor)	100 to 1000	100 to 1000	C (the MIC in the presence of <4 μg/mL of a β-lactamase inhibitor)	< 100	C (the MIC in the presence of <4 μg/mL of a β-lactamase inhibitor)	< 100	B (the MIC in the presence of between 8 and 32 μg/mL of a β-lactamase inhibitor)	B (the MIC in the presence of between 8 and 32 μg/mL of a β-lactamase inhibitor)	B (the MIC in the presence of between 8 and 32 μg/mL of a β-lactamase inhibitor)
